Test [1] deals with peripheral opioid receptors. Put plainly: antagonism by naloxone methiodide in the acetic acid-induced writhing assay. To be noted: sc co-administration with naloxone methiodide 1 mg/kg; agonist 50 or 200 μg/kg sc; 30 min. The format is in vivo, mouse. The text has this: To determine whether targeted 6-amino acid and 6-dipeptide analogues inhibit writhing behavior in mice through peripheral opioid receptors activation, we used naloxone methiodide.[27]
Values are shown as mean of writhes ± SEM (n = 6–7 mice per group). ***P < 0.001 vs control group; ^#P < 0.05, ^##P < 0.01 and ^###P < 0.001 vs agonist treated group, ANOVA with Tukey’s post hoc test.
Writhing was induced in male CD1 mice by ip injection of a 0.6% acetic acid aqueous solution as described previously.[48],[62] Groups of mice were administered sc different doses of test compound or saline (control), and 5 min prior to testing (25 min after drug or saline), each animal received an ip injection of acetic acid solution. Each mouse was placed in individual transparent Plexiglas chambers, and the number of writhes was counted during a 10 min observation period. […] For the antagonism study, naloxone methiodide was sc co-administered with the respective opioid agonist, and writhing was assessed as described above.
For orientation: In writhing tests, fewer writhes than in controls are read as antinociception.

The test system of test [2] is male CD1 mice. Put plainly: acetic acid-induced writhing assay after sc administration. The class given is in vivo, mouse. To be noted: Mus musculus, 0.5 h, read-out: ED50 (95% CI), mice, sc, inhibition of writhing 30 min after drug administration.
Test [3] has as its target T1, DOR (Homo sapiens, UniProt P41143).
T1 construct: host or cells: CHO (CHO-hDOR)
Briefly: competition radioligand binding, CHO cell membranes expressing human DOR, [3H]diprenorphine.

The test system of test [4] is male CD1 mice. The following applies: sc; cited from earlier work.
The target of test [5] is T2, KOR (Homo sapiens, UniProt P41145).
T2 construct: host or cells: CHO (CHO-hKOR)
T2 sequence (P41145 whole entry): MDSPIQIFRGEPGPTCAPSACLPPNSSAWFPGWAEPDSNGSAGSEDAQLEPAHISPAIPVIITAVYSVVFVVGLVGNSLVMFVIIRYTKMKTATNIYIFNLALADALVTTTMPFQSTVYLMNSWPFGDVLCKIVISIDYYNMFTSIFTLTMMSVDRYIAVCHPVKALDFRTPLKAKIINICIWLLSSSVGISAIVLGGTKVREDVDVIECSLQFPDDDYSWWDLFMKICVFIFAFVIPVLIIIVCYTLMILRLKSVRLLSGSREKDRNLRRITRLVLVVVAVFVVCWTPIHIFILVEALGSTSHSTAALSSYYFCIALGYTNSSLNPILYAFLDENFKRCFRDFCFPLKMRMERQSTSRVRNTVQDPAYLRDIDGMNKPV
Put plainly: [35S]GTPγS binding assay, CHO-hKOR membranes. The format is biochemical. Background: GTPγS resists hydrolysis and so accumulates on activated G proteins.

Test [6] has as its system MOR. To be noted: systemic sc 2b, icv CTAP; cited from earlier work.
Test [7] deals with mouse. Details: method as in PMID 25721395. To be noted: systemic ip administration; cited from earlier work.
The test system of test [8] is rats. Also noted: method as in PMID 16339394. The following applies: given orally; cited from earlier work.
For test [9], the target named is T3, MOR (Homo sapiens, UniProt P35372).
T3 construct: host or cells: CHO (CHO-hMOR)
T3 sequence (P35372 whole entry): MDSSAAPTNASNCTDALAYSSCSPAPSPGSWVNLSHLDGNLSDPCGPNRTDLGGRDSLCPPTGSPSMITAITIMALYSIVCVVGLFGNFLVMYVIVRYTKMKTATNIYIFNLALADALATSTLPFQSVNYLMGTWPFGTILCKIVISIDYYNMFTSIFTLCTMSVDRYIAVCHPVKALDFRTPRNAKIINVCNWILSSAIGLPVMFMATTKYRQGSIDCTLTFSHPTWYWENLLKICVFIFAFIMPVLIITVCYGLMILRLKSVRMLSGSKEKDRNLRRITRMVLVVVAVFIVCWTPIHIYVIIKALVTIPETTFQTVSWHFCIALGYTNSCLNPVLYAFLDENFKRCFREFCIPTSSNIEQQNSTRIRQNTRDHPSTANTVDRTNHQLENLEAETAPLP
Put plainly: [35S]GTPγS binding assay, CHO-hMOR membranes. The format is biochemical.

Test [10] concerns the target T3, MOR. Briefly: competition radioligand binding, CHO cell membranes expressing human MOR, [3H]DAMGO. Here is the method:
Membranes from CHO cells expressing human opioid receptors were prepared in 50 mM Tris-HCl buffer (pH 7.7) according to a previously described procedure.[64] Cells expressing human opioid receptors grown at confluence were removed from the culture plates by scraping, homogenized in 50 mM Tris buffer (pH 7.7), using a Polytron homogenizer, then centrifuged once and washed by an additional centrifugation at 27 000g for 15 min, at 4 °C. The final pellet was resuspended in Tris buffer and stored at −80 °C until use. Protein content of brain and cell membrane preparation homogenates was determined by the method of Bradford using bovine serum albumin as the standard.[65]
Rat brain membranes were incubated with either [^3H]DAMGO (1 nM, 45 min, 35 °C) or [^3H][Ile^5,6]deltorphin II (0.5 nM, 45 min, 35 °C) for labeling MOR or DOR receptors, respectively. Guinea-pig brain membranes were incubated with [^3H]U69,593 (1 nM, 30 min, 30 °C) for labeling KOR. Binding assays with CHO cell membranes were conducted at 25 °C for 60 min using [^3H]DAMGO (1 nM) or [^3H]diprenorphine (0.2 nM) for labeling MOR or DOR, respectively. Nonspecific binding was determined using 10 μM naloxone (rodent brain) or 1–10 μM of the unlabeled counterpart of each radioligand (CHO cells). Reactions were terminated by rapid filtration through Whatman glass fiber GF/C filters. Filters were washed three times with 5 mL of ice-cold 50 mM Tris-HCl buffer (pH 7.4) using a Brandel M24R cell harvester (Gaithersburg, MD). Radioactivity retained on the filters was counted by liquid scintillation counting using a Beckman Coulter LS6500 (Beckman Coulter Inc., Fullerton, CA). All binding experiments were performed in duplicate and repeated at least three times.
aDetermined in competition radioligand binding assays using CHO cell membranes expressing
human MOR and DOR. Values represent the mean ± SEM of three independent experiments each

Entries after “also recorded” stand apart in the source; their conditions may differ.

T1 sequence (P41143 whole entry): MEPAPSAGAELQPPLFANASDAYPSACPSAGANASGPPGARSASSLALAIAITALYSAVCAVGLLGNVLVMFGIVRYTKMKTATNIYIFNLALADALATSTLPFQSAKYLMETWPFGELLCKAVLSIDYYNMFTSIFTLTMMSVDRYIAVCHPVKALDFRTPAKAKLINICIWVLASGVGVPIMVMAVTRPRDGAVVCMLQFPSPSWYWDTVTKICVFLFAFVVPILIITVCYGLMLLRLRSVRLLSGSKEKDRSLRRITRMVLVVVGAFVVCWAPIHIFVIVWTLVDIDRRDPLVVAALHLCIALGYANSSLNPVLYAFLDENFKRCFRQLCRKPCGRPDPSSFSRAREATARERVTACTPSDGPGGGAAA

Regarding `CO[C@@]12CC[C@@H](NCC(=O)O)[C@@H]3Oc4c(O)ccc5c4[C@@]31CCN(C)[C@@H]2C5` [Compound 2b, 2-[(4,5α-Epoxy-3-Hydroxy-14β-Methoxy-17-Methylmorphinan-6β-yl)Amino]Acetic Acid], the “effect of naloxone methiodide on antinociceptive effect” value in [1] is recorded as “reversed; also recorded: antagonized”. Moreover, the ED50 in test [2] is 0.0275 mg/kg. For the same compound, the Ki (commonly the dissociation constant of the complex between target and ligand, obtained from inhibition or displacement) in test [3] is 10.1 ± 2.7 nM; in [10] it was 0.9 ± 0.14 nM. Further, the “more potent than morphine in inhibiting the writhing response” value in test [4] is recorded as 24 times. Further, the values for the EC50 in test [5] and in [9] were 361 ± 154 nM and 3.78 ± 0.73 nM, respectively. Also, the Emax stood at 82 ± 9% in test [5] (relative to reference full agonist U69,593, read-out: KOR % stim.) and 98 ± 9% in test [9] (relative to reference full agonist DAMGO, read-out: MOR % stim.). Besides, the “effect of intracerebroventricular CTAP on antinociceptive effects” value in test [6] is reported as “did not reverse”. In addition, the “effect of naloxone methiodide on antinociceptive effects” value in test [7] is listed as “completely antagonized”. Moreover, the “effect of sc naloxone methiodide on antihyperalgesic effects” value in test [8] is listed as “reversed”.

The record behind these values is publication PMC6348443 (Journal of Medicinal Chemistry, 2018).
